We go through 6 molecules from ChEMBL document CHEMBL4396864, “Small-Molecule Modulators of the Hypoxia-Inducible Factor Pathway: Development and Therapeutic Applications” (J Med Chem, 2019).

pIC50, pKd: −log10 of the molar value.

For one assay, the system named is Hep 3B2. As to the kind of experiment: Downregulation of VEGF protein level in human Hep3B cells after 8 hrs by ELISA. The assay is classed as functional, cell-based.
Assay [1] deals with Hypoxia-inducible factor 1-alpha (Homo sapiens, UniProt Q16665). As to the kind of experiment: Inhibition of HIF-1alpha in human U373 cells. The assay is classed as cell-based, U-373MG ATCC.
The target of assay [2] is T1, CREB-binding protein/Histone acetyltransferase p300 (Homo sapiens, UniProt Q09472+Q92793). Briefly: Inhibition of GST-tagged p300 (unknown origin)/CBP (unknown origin) protein-protein interaction by fluorescence polarization assay. Background: In fluorescence polarisation assays a small probe gives low polarisation when free and higher when bound to something large.

Assay [3] deals with T1, CREB-binding protein/Histone acetyltransferase p300. As to the kind of experiment: Inhibition of GST-tagged p300 (unknown origin)/CBP (unknown origin) protein-protein interaction. The assay is classed as protein assay.
The target in assay [4] is Histone acetyltransferase p300 (Homo sapiens, UniProt Q09472). As to the kind of experiment: Binding affinity to p300 (unknown origin).
Chain of Histone acetyltransferase p300 (Q09472 whole entry): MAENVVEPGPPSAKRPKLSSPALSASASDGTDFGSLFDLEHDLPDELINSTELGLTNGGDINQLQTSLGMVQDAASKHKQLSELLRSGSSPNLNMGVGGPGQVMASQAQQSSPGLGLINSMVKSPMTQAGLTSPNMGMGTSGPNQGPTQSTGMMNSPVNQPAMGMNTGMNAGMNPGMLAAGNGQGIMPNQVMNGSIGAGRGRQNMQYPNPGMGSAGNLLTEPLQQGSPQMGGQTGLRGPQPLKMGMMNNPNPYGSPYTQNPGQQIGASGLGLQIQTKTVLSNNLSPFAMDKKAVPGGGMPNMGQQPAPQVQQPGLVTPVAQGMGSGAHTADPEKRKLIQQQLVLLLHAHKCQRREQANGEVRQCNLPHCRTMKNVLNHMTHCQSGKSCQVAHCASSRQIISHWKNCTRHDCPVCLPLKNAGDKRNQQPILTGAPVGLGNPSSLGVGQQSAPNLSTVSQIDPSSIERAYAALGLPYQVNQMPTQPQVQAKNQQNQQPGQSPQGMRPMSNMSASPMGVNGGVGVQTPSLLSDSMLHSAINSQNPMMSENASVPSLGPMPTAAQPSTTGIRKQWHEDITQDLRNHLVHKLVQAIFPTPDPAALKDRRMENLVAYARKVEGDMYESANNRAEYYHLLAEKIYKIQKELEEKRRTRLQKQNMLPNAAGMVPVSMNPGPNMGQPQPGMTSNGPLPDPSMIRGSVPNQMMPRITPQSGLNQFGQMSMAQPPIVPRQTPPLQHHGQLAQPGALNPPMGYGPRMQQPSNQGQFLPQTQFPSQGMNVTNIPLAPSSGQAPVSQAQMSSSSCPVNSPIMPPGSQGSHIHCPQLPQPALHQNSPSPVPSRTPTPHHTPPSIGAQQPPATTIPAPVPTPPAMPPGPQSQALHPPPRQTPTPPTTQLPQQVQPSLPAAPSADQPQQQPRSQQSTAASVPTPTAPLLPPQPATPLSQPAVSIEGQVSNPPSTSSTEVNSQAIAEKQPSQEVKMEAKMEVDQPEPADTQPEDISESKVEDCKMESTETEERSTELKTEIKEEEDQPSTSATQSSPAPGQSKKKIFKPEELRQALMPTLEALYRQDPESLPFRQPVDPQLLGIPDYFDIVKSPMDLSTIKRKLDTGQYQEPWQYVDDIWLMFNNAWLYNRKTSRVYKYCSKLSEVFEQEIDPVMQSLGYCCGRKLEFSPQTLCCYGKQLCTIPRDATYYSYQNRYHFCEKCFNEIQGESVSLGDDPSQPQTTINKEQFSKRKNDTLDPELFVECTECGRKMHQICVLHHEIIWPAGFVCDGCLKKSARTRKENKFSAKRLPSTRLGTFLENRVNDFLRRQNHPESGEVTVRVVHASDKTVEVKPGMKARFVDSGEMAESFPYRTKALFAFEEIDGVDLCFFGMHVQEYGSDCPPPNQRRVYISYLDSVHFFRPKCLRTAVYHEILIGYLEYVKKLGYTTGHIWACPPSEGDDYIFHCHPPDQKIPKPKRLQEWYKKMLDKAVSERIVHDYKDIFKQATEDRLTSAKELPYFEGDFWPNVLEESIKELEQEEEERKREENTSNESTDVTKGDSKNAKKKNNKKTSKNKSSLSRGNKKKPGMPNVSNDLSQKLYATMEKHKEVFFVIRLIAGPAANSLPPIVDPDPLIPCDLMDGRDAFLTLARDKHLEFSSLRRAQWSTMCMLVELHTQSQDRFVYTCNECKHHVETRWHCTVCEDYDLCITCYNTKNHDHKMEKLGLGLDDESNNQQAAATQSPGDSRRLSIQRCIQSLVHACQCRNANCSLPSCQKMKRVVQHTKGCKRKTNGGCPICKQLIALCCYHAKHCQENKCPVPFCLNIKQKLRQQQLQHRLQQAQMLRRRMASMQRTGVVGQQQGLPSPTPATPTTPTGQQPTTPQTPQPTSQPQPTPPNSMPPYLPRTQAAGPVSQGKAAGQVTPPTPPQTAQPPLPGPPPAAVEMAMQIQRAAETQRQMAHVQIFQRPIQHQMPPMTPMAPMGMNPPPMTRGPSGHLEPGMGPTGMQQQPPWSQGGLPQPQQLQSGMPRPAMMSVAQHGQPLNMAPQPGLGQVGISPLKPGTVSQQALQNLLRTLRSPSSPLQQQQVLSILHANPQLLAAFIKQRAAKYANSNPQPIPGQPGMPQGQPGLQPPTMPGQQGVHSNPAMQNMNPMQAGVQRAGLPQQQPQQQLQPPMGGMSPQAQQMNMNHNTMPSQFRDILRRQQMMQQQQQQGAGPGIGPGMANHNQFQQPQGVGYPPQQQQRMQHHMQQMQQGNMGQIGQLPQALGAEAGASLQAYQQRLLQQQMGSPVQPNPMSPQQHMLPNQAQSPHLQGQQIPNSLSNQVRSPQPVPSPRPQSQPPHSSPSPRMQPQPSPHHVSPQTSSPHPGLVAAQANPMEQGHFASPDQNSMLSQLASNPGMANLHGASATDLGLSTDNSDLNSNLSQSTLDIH

Chain of Hypoxia-inducible factor 1-alpha (Q16665 whole entry): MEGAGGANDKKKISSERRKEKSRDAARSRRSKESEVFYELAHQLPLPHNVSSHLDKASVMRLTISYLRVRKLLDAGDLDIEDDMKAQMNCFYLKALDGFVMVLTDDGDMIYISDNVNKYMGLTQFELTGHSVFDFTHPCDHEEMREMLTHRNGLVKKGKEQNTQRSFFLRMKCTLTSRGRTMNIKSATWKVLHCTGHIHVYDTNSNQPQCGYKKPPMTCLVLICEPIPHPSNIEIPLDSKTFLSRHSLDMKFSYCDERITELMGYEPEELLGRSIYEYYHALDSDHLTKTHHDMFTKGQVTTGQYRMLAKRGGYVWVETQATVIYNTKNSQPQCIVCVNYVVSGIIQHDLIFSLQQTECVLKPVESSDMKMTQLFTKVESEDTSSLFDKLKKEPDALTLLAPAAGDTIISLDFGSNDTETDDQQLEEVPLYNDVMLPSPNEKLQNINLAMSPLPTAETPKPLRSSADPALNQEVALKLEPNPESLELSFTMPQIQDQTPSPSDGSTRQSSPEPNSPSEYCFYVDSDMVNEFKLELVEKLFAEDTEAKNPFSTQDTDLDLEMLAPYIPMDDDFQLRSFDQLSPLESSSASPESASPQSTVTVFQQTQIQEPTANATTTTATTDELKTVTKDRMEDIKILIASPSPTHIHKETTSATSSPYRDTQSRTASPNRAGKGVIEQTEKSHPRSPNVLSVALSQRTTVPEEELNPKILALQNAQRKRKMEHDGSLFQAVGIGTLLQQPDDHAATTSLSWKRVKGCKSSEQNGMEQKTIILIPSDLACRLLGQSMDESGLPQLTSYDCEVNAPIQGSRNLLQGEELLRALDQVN

One may read the pIC50 as the IC50 on a negative log10 scale, so that one unit is a factor of ten. The low end stands for a large IC50, the high end for a small IC50. In the assay with Hep 3B2, `CN1C(=O)[C@@]23C[C@]4([C@]56C[C@@]78SS[C@@](CO)(C(=O)N7[C@H]5Nc5ccccc56)N(C)C8=O)c5ccccc5N[C@@H]4N2C(=O)[C@]1(CO)SS3` [CHAETOCIN] had a pIC50 of 7.00. On to `COc1cc([C@@H]2c3cc4c(cc3[C@@H](Nc3ccc([N+](=O)[O-])cc3)[C@H]3COC(=O)[C@H]23)OCO4)cc(OC)c1O`, for which the pIC50 in assay [1] was 8.30 to 9.00. By IC50 is commonly meant the point on the concentration scale where inhibition reaches its midpoint. A high value points to weaker potency. For the molecule `CN1C(=O)[C@]2(Cc3ccc(CCc4ccc(C[C@@]56SS[C@@](CO)(C(=O)N5C)N(C)C6=O)cc4)cc3)SS[C@@]1(CO)C(=O)N2C`, the IC50 in assay [2] is 600 nM. The molecule `CC(C)Cc1cc(CNC(=O)N2CCN(CC(=O)Nc3ccccc3Cl)CC2)nn1-c1ccccc1.Cl` registered an IC50 in assay [3] of 107000 nM. For `CN1C(=O)[C@]2(Cc3ccc(C[C@@]45SS[C@@](CO)(C(=O)N4C)N(C)C5=O)cc3)SS[C@@]1(CO)C(=O)N2C`, in assay [2], the half-maximal inhibitory concentration (IC50) is 1500 nM. That is a single-digit micromolar value. For orientation: pKd means the negative decadic logarithm of the Kd, by convention in mol/L. Read a low pKd as a large Kd. On to `CC(C)C[C@H](NC(=O)[C@H](C)NC(=O)[C@H](CCCNC(=N)N)NC(=O)[C@H](C)N1CC/C=C\CC(=O)N[C@@H](CCC(=O)O)C(=O)N[C@@H](CC(C)C)C1=O)C(=O)N[C@@H](CC(=O)O)C(=O)N[C@@H](CCC(N)=O)C(N)=O`, for which, in assay [4], the pKd was 6.16.
